Measurements taken from ChEMBL document CHEMBL1151648, “The Sesquiterpenes of Lactarius vellereus and Their Role in a Proposed Chemical Defense System” (J Nat Prod, 1985).

Experiments:
Assay type in all cases: functional
Candida albicans = assay: Antimicrobial activity against Candida albicans by Kirby-Bauer growth inhibition assay
Micrococcus luteus = assay: Antimicrobial activity against Micrococcus luteus by Kirby-Bauer growth inhibition assay
Escherichia coli = assay: Antimicrobial activity against Escherichia coli by Kirby-Bauer growth inhibition assay

Q: How did the Activity (Candida albicans) turn out when `C[C@H]1C=C(CO)C(CO)=C[C@@H]2CC(C)(C)C[C@@H]21` [VELLERDIOL] was run?
A: >1000 µg

Q: And the Activity (Micrococcus luteus)?
A: >1000 µg

Q: And the Activity (Escherichia coli)?
A: >1000 µg

Q: How did the Activity (Candida albicans) turn out when `C[C@H]1C=C(C=O)C(CO)=C[C@@H]2CC(C)(C)C[C@@H]21` [VELLEROL] was run?
A: 100 µg

Q: What about the Activity (Micrococcus luteus) of the same compound?
A: 300 µg

Q: What about the Activity (Escherichia coli) of the same compound?
A: >1000 µg

Q: Which results are given for `CC1(C)C[C@H]2C=C3COC(O)[C@]34C[C@]4(C)[C@H]2C1` (stereo not given in full) [ISOVELLEROL]?
A: Activity (Candida albicans): 50 µg; Activity (Micrococcus luteus): 300 µg; Activity (Escherichia coli): >1000 µg

Q: Which results are given for `CC1(C)C[C@H]2C=C(C=O)[C@]3(C=O)C[C@]3(C)[C@H]2C1` [ISOVELLERAL]?
A: Activity (Candida albicans): 2 µg; Activity (Micrococcus luteus): 2 µg; Activity (Escherichia coli): 15 µg

Q: With `C[C@H]1C=C(C=O)C(C=O)=C[C@@H]2CC(C)(C)C[C@@H]21` [LACTARANE] as the compound, how does the Activity (Candida albicans) read?
A: 2 µg

Q: And the Activity (Micrococcus luteus)?
A: 15 µg

Q: And the Activity (Escherichia coli)?
A: 50 µg
